According to patent US20130310427A1, “INHIBITORS OF HCV NS5A PROTEIN” (PRESIDIO PHARMACEUTICALS, INC., priority 2010, published 2013):

Test system: bicistronic genotype 1b replicon in Huh 7 cells (1b_Huh-Luc/Neo-ET cell line)
Experiment: HCV replicon assay, luciferase enzyme activity readout
Type: cell-based
Settings: Hepatitis C virus, 1b_Huh-Luc/Neo-ET replicon cells, 72 h incubation, Bright-Glo luciferase readout, EC50 ranges, read-out: Inhibition of HCV genotype 1b
Experimental: Biological activity of the compounds of the invention was determined using an HCV replicon assay. The 1b_Huh-Luc/Neo-ET cell line persistently expressing a bicistronic genotype 1b replicon in Huh 7 cells was obtained from ReBLikon GMBH. This cell line was used to test compound inhibition using luciferase enzyme activity readout as a measurement of compound inhibition of replicon levels.
On Day 1 (the day after plating), each compound is added in triplicate to the cells. Plates incubated for 72 h prior to running the luciferase assay. Enzyme activity was measured using a Bright-Glo Kit (cat. number E2620) manufactured by Promega Corporation. The following equation was used to generate a percent control value for each compound.
% Control=(Average Compound Value/Average Control)*100
The EC50 value was determined using GraphPad Prism and the following equation:
Y=Bottom+(Top−Bottom)/(1+10̂((Log IC50−X)*HillSlope))
EC50 values of compounds are repeated several times in the replicon assay.

COC(=O)N[C@H](C(=O)N1CC(C)=C[C@H]1c1ncc(-c2ccc3cc(-c4ccc5nc([C@@H]6C=C(C7CC7)CN6C(=O)[C@@H](NC(=O)OC)C(C)C)[nH]c5c4)ccc3c2)[nH]1)C(C)C [Compound 122]
EC50: < 1 nM

COC(=O)N[C@H](C(=O)N1CC(C)=C[C@H]1c1ncc(-c2ccc3cc(C#Cc4cnc([C@@H]5CCCN5C(=O)[C@@H](NC(=O)OC)C(C)C)[nH]4)ccc3c2)[nH]1)C(C)C [Compound 123]
EC50: < 1 nM

COC(=O)N[C@H](C(=O)N1CC(C)=C[C@H]1c1nc2ccc(C#Cc3ccc(-c4cnc([C@@H]5CCCN5C(=O)[C@@H](NC(=O)OC)C(C)C)[nH]4)cc3)cc2[nH]1)C(C)C [Compound 104]
EC50: < 1 nM

COC(=O)N[C@H](C(=O)N1CC(C2CC2)=C[C@H]1c1ncc(-c2ccc(-c3ccc4cc(-c5cnc([C@@H]6CCCN6C(=O)[C@@H](NC(=O)OC)C(C)C)[nH]5)ccc4c3)cc2)[nH]1)C(C)C [Compound 105]
EC50: < 1 nM

COC(=O)N[C@H](C(=O)N1CC(C)=C[C@H]1c1ncc(-c2ccc3c(=O)c4cc(-c5cnc([C@@H]6C=C(C)CN6C(=O)[C@@H](NC(=O)OC)C(C)C)[nH]5)ccc4oc3c2)[nH]1)C(C)C [Compound 113]
EC50: < 1 nM

COC(=O)N[C@H](C(=O)N1CC(C)=CC1c1ncc(-c2ccc(-c3ccc4cc(-c5cnc([C@@H]6CCCN6C(=O)[C@@H](NC(=O)OC)C(C)C)[nH]5)ccc4c3)cc2)[nH]1)C(C)C (stereo partly shown) [Compound 101]
EC50: < 1 nM

COC(=O)N[C@H](C(=O)N1CC(C2CC2)=C[C@H]1c1nc2ccc(-c3ccc4cc(-c5cnc([C@@H]6CCCN6C(=O)[C@@H](NC(=O)OC)C(C)C)[nH]5)ccc4c3)cc2[nH]1)C(C)C [Compound 114]
EC50: < 1 nM

COC(=O)N[C@H](C(=O)N1CC(C)=C[C@H]1c1ncc(-c2ccc3c(c2)Oc2ccc(-c4cnc([C@@H]5C=C(C)CN5C(=O)[C@@H](NC(=O)OC)C(C)C)[nH]4)cc2C3(C)C)[nH]1)C(C)C [Compound 112]
EC50: < 1 nM

COC(=O)N[C@H](C(=O)N1CC(C)=C[C@H]1c1ncc(-c2ccc(-c3ccc4cc(-c5cnc([C@@H]6C=C(C)CN6C(=O)[C@@H](NC(=O)OC)C(C)C)[nH]5)ccc4c3)cc2)[nH]1)C(C)C [Compound 121]
EC50: < 1 nM

COC(=O)N[C@H](C(=O)N1CC(C)=C[C@H]1c1ncc(-c2ccc(C#Cc3ccc(-c4cnc([C@@H]5C=C(C)CN5C(=O)[C@@H](NC(=O)OC)C(C)C)[nH]4)cc3)cc2)[nH]1)C(C)C [Compound 111]
EC50: < 1 nM

COC(=O)N[C@H](C(=O)N1CC(C)=C[C@H]1c1ncc(-c2ccc3cc(-c4ccc(-c5cnc([C@@H]6CCCN6C(=O)[C@@H](NC(=O)OC)C(C)C)[nH]5)cc4)ccc3c2)[nH]1)C(C)C [Compound 120]
EC50: < 1 nM

COC(=O)N[C@H](C(=O)N1CC(C2CC2)=C[C@H]1c1ncc(-c2ccc(C#Cc3ccc4nc([C@@H]5CCCN5C(=O)[C@@H](NC(=O)OC)C(C)C)[nH]c4c3)cc2)[nH]1)C(C)C [Compound 109]
EC50: < 1 nM

COC(=O)N[C@H](C(=O)N1CC(C)=C[C@H]1c1ncc(-c2ccc(C#Cc3ccc(-c4cnc([C@@H]5CCCN5C(=O)[C@@H](NC(=O)OC)C(C)C)[nH]4)cc3)cc2)[nH]1)C(C)C [Compound 103]
EC50: < 1 nM

COC(=O)N[C@H](C(=O)N1CC(C)=C[C@H]1c1ncc(-c2ccc3cc(-c4ccc5nc([C@@H]6CCCN6C(=O)[C@@H](NC(=O)OC)C(C)C)[nH]c5c4)ccc3c2)[nH]1)C(C)C [Compound 119]
EC50: < 1 nM

COC(=O)N[C@H](C(=O)N1CC(C)=C[C@H]1c1ncc(-c2ccc(C#Cc3ccc4c(ccc5nc([C@@H]6CCCN6C(=O)[C@@H](NC(=O)OC)C(C)C)[nH]c54)c3)cc2)[nH]1)C(C)C [Compound 118]
EC50: < 1 nM

COC(=O)N[C@H](C(=O)N1CC(C2CC2)=C[C@@H]1c1nc2ccc(C#Cc3ccc(-c4cnc([C@@H]5CCCN5C(=O)[C@@H](NC(=O)OC)C(C)C)[nH]4)cc3)cc2[nH]1)C(C)C [Compound 116]
EC50: 1 to 9.9 nM

COC(=O)N[C@H](C(=O)N1CC(C2CC2)=C[C@H]1c1ncc(-c2ccc(C#Cc3ccc(-c4cnc([C@@H]5CCCN5C(=O)[C@@H](NC(=O)OC)C(C)C)[nH]4)cc3)cc2)[nH]1)C(C)C [Compound 110]
EC50: < 1 nM

COC(=O)N[C@H](C(=O)N1CC(C2CC2)=C[C@H]1c1nc2ccc(C#Cc3ccc(-c4cnc([C@@H]5CCCN5C(=O)[C@@H](NC(=O)OC)C(C)C)[nH]4)cc3)cc2[nH]1)C(C)C [Compound 115]
EC50: < 1 nM

COC(=O)N[C@H](C(=O)N1CC(C)=C[C@H]1c1ncc(-c2ccc(C#Cc3ccc4nc([C@@H]5CCCN5C(=O)[C@@H](NC(=O)OC)C(C)C)[nH]c4c3)cc2)[nH]1)C(C)C [Compound 102]
EC50: < 1 nM
